Test results published in PubChem BioAssay (NCI).
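Values below derive from 48-hour exposures of cells grown in 96-well plates, with endpoints linearly interpolated between the two concentrations bracketing the appropriate inhibition level. TGI: total growth inhibition.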

Assays:
SN12K1 renal = assay: DTP human tumour cell line panel, 48 h
RXF-631 renal = assay: DTP human tumour cell line panel, 48 h

`O=C(CCN1CCOCC1)C(=Cc1ccccc1)C(=O)CCN1CCOCC1` showed a TGI (SN12K1 renal) of 5.68 µM.
Compound `C[N+](C)=c1nc(N2CCc3ccccc3C2)ss1` has a TGI (RXF-631 renal) greater than 100 µM.
`NCc1cc(O)c(O)c(O)c1` gave a TGI (RXF-631 renal) greater than 100 µM.
